Source: patent publication US20240270762A1, “PENICILLIN-BINDING PROTEIN INHIBITORS” (priority 2021, published 2024)
In brackets after ≈: the same amount, converted by molar mass. Read-outs that look alike come from different tables or passages of the source.

What was measured:
P. aeruginosa ATCC 27853 = test: microbe, parasite or virus in culture; assay type: cell-based; conditions: Pseudomonas aeruginosa, ATCC27853, read-out: Minimum inhibitory concentration, P. aeruginosa ATCC 27853
N. gonorrhoeae MS11 = test: Liquid broth MIC in Fastidious broth; conditions: Neisseria gonorrhoeae
B. pseudomallei Bp82 = test: microbe, parasite or virus in culture; assay type: cell-based; conditions: Burkholderia pseudomallei, BP82, read-out: Minimum inhibitory concentration, B. pseudomallei Bp82
A. baumannii ATCC 19606 = test: microbe, parasite or virus in culture; assay type: cell-based; conditions: Acinetobacter baumannii, ATCC19606, read-out: MIC, A. baumannii ATCC 19606
P. aeruginosa ATCC 35151 = test: microbe, parasite or virus in culture; assay type: cell-based; conditions: Pseudomonas aeruginosa, ATCC35151, read-out: Minimum inhibitory concentration, P. aeruginosa ATCC 35151
P. aeruginosa CDC-0054 = test: microbe, parasite or virus in culture; assay type: cell-based; conditions: Pseudomonas aeruginosa, CDC0054, read-out: Minimum inhibitory concentration, P. aeruginosa CDC-0054
[1] = system: B. humptydooensis ATCC BAA-2767; test: microbe, parasite or virus in culture; assay type: cell-based; conditions: Burkholderia humptydooensis, ATCCBAA2767, read-out: Minimum inhibitory concentration (MIC), B. humptydooensis ATCC BAA-2767
[2] = system: B. thailandensis ATCC 700388; test: microbe, parasite or virus in culture; assay type: cell-based; conditions: Burkholderia thailandensis, ATCC700388, read-out: Minimum inhibitory concentration (MIC), B. thailandensis ATCC 700388
A. baumannii CDC-0083 = test: microbe, parasite or virus in culture; assay type: cell-based; conditions: Acinetobacter baumannii, CDC0083, read-out: MIC, A. baumannii CDC-0083
N. gonorrhoeae CDC-0197 = test: Liquid broth MIC in Fastidious broth; conditions: Neisseria gonorrhoeae
P. aeruginosa CDC-0110 = test: microbe, parasite or virus in culture; assay type: cell-based; conditions: Pseudomonas aeruginosa, CDC0110, read-out: Minimum inhibitory concentration, P. aeruginosa CDC-0110
A. baumannii PBP1a = biological target: T1, A. baumannii PBP1a (Acinetobacter baumannii, UniProt A0ABX6CK30); test: Bocillin-FL competition binding via gel filtration, A. baumannii PBP1a; conditions: competition binding assay using Bocillin-FL via gel filtration; read-out: A. baumannii PBP1a Potency
T1 sequence (A0ABX6CK30 1-851): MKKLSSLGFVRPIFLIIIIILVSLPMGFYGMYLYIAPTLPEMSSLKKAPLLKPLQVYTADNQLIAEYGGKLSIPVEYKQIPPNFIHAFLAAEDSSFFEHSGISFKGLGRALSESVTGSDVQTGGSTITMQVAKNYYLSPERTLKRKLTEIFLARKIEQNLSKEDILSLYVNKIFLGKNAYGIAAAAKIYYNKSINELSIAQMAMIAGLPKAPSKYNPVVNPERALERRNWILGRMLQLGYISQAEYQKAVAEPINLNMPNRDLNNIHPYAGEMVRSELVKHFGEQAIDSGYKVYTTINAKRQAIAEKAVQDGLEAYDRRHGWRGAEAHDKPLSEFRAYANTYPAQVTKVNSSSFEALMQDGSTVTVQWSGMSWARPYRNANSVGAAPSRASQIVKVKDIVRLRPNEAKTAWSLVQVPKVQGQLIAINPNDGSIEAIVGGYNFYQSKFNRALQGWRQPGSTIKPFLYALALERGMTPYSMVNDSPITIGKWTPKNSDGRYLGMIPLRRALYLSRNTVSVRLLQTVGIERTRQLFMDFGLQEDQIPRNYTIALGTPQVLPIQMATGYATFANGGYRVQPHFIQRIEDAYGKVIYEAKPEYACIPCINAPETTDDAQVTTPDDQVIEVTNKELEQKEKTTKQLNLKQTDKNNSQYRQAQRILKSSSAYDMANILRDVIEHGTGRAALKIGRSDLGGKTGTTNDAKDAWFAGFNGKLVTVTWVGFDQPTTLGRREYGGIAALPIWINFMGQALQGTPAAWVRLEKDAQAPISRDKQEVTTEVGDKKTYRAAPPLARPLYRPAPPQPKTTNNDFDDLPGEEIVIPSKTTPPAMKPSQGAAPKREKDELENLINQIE
Summary of the method: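 Enzyme pre-incubated with increasing inhibitor concentrations, then Bocillin-FL added for 15 min further incubation. Bocillin-FL-bound PBP separated by gel filtration and fluorescence read. EC50 from fitting fraction PBP bound vs inhibitor concentration to a Hill-type equation (ymin, ymax, n).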

A. baumannii CDC-0045 = test: microbe, parasite or virus in culture; assay type: cell-based; conditions: Acinetobacter baumannii, CDC0045, read-out: MIC, A. baumannii CDC-0045
[3] = system: P. aeruginosa (ΔmexAB-oprM); test: Broth microdilution MIC in iron-depleted CAMHB (IDM); assay type: cell-based; conditions: Pseudomonas aeruginosa; iron-depleted CAMHB (IDM); […]; read-out: Minimum inhibitory concentration, P. aeruginosa ΔmexAB-oprM
[4] = MS11, read-out: Minimum Inhibitory Concentration (MIC), N. gonorrhoeae MS11
[5] = CDC0197, read-out: Minimum Inhibitory Concentration (MIC), N. gonorrhoeae CDC-0197
[6] = MS11, read-out: Minimum Inhibitory Concentration, MS11
[7] = CDC0197, read-out: Minimum Inhibitory Concentration, CDC-0197

| Compound | MIC (P. aeruginosa ATCC 27853) [µg/mL] | MIC (N. gonorrhoeae MS11; [4]) [µg/mL] | MIC (B. pseudomallei Bp82) [µg/mL] | MIC (A. baumannii ATCC 19606) [µg/mL] | MIC (P. aeruginosa ATCC 35151) [µg/mL] | MIC (P. aeruginosa CDC-0054) [µg/mL] | MIC [1] [µg/mL] | MIC [2] [µg/mL] | MIC (A. baumannii CDC-0083) [µg/mL] | MIC (N. gonorrhoeae CDC-0197; [5]) [µg/mL] | MIC (P. aeruginosa CDC-0110) [µg/mL] | EC50 (A. baumannii PBP1a) [µM] | MIC (A. baumannii CDC-0045) [µg/mL] | MIC [3] [µg/mL] | MIC (N. gonorrhoeae MS11; [6]) [µg/mL] | MIC (N. gonorrhoeae CDC-0197; [7]) [µg/mL] |
| --- | --- | --- | --- | --- | --- | --- | --- | --- | --- | --- | --- | --- | --- | --- | --- | --- |
| CN(CCN1CCN(C(=O)N[C@@H](C(=O)N[C@H]2Cc3ccc(F)c(C(=O)O)c3OB2O)c2cc(F)c(O)c(O)c2Cl)C(=O)C1=O)Cc1ccc(N)nc1 [Example 209, (R)-3-((R)-2-(4-(2-(((6-aminopyridin-3-yl)methyl)(methyl)amino)ethyl)-2,3-dioxopiperazine-1-carboxamido)-2-(2-chloro-5-fluoro-3,4-dihydroxyphenyl)acetamido)-7-fluoro-2-hydroxy-3,4-dihydro-2H-benzo[e][1,2]oxaborinine-8-carboxylic acid] | < 1 | 4 to 8 (≈ 5.36 to 10.7 µM) | < 1 | < 1 | < 1 | 2 to 4 (≈ 2.68 to 5.36 µM) | < 1 | < 1 | < 1 | 16 to 32 (≈ 21.5 to 42.9 µM) | < 1 | 10 to 50 | < 1 | < 1 | – | – |
| O=C(NCCCN1CCN(C(=O)NC(C(=O)N[C@H]2Cc3ccc(F)c(C(=O)O)c3OB2O)c2cc(F)c(O)c(O)c2Cl)C1=O)c1nccs1 (stereo partly drawn) [Example 257, (3R)-3-(2-(2-chloro-5-fluoro-3,4-dihydroxyphenyl)-2-(2-oxo-3-(3-(thiazole-2-carboxamido)propyl)imidazolidine-1-carboxamido)acetamido)-7-fluoro-2-hydroxy-3,4-dihydro-2H-benzo[e][1,2]oxaborinine-8-carboxylic acid] | 2 to 4 (≈ 2.77 to 5.53 µM) | – | < 1 | < 1 | < 1 | 2 to 4 (≈ 2.77 to 5.53 µM) | 2 to 4 (≈ 2.77 to 5.53 µM) | < 1 | < 1 | – | 2 to 4 (≈ 2.77 to 5.53 µM) | – | < 1 | < 1 | 16 to 32 (≈ 22.1 to 44.3 µM) | > 64 |
| O=C(NCCCN1CCN(C(=O)NC(C(=O)N[C@H]2Cc3ccc(F)c(C(=O)O)c3OB2O)c2cc(F)c(O)c(O)c2Cl)C(=O)C1=O)Nc1cccnc1 (stereo partly drawn) [Example 213, (3R)-3-(2-(2-chloro-5-fluoro-3,4-dihydroxyphenyl)-2-(2,3-dioxo-4-(3-(3-(pyridin-3-yl)ureido)propyl)piperazine-1-carboxamido)acetamido)-7-fluoro-2-hydroxy-3,4-dihydro-2H-benzo[e][1,2]oxaborinine-8-carboxylic acid] | 2 to 4 (≈ 2.63 to 5.26 µM) | 16 to 32 (≈ 21.1 to 42.1 µM) | < 1 | < 1 | < 1 | 2 to 4 (≈ 2.63 to 5.26 µM) | < 1 | 2 to 4 (≈ 2.63 to 5.26 µM) | 8 to 16 (≈ 10.5 to 21.1 µM) | > 64 | < 1 | – | 2 to 4 (≈ 2.63 to 5.26 µM) | < 1 | – | – |
| O=C(NCCN1CCN(C(=O)NC(C(=O)N[C@H]2Cc3ccc(F)c(C(=O)O)c3OB2O)c2cc(F)c(O)c(O)c2Cl)C1=O)Nc1ccncc1 (stereo partly drawn) [Example 250, (3R)-3-(2-(2-chloro-5-fluoro-3,4-dihydroxyphenyl)-2-(2-oxo-3-(2-(3-(pyridin-4-yl)ureido)ethyl)imidazolidine-1-carboxamido)acetamido)-7-fluoro-2-hydroxy-3,4-dihydro-2H-benzo[e][1,2]oxaborinine-8-carboxylic acid] | 2 to 4 (≈ 2.79 to 5.57 µM) | – | < 1 | < 1 | < 1 | 8 to 16 (≈ 11.1 to 22.3 µM) | < 1 | > 128 | < 1 | – | 2 to 4 (≈ 2.79 to 5.57 µM) | – | < 1 | < 1 | 16 to 32 (≈ 22.3 to 44.6 µM) | > 64 |
